Reference: ChEMBL document CHEMBL1909046, “DrugMatrix in vitro pharmacology data”

biological target: T1, Alpha-1B adrenergic receptor (Rattus norvegicus, UniProt P15823); experiment: DRUGMATRIX: Alpha-1B adrenergic receptor radioligand binding (ligand: prazosin); assay type: cell membranes, Wistar, Liver, Membrane; settings: Not Active = under 50% inhibition at 10 µM
T1 sequence (P15823 whole entry): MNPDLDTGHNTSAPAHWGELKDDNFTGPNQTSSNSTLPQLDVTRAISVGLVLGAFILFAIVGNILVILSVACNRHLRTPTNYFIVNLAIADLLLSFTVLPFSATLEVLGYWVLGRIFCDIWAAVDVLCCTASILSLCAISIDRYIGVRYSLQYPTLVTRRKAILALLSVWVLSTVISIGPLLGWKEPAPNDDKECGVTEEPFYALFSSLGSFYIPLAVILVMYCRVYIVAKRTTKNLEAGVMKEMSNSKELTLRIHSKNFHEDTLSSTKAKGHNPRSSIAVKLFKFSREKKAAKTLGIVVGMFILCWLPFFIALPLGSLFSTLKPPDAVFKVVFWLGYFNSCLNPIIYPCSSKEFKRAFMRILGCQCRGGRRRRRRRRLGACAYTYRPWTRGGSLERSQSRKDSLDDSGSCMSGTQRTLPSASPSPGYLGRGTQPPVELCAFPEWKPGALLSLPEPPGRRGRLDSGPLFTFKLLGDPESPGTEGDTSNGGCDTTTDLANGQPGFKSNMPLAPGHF

SMILES	IC50
CC(C)(C)NCC(O)c1ccc(O)c(CO)c1 (stereo unspecified) [ALBUTEROL]	Not Active
CC(C)(C)NCC(O)c1cc(O)cc(O)c1 (stereo unspecified) [TERBUTALINE]	Not Active

same assay, conditions: Not Active = under 50% inhibition at 10 µM; read-out: IC50

SMILES	IC50 [nM]
CC(CCc1ccccc1)NCC(O)c1ccc(O)c(C(N)=O)c1 (stereo unspecified) [LABETALOL]	583

same assay, conditions: Not Active = under 50% inhibition at 10 µM; read-out: Ki

SMILES	Ki [nM]
CC(CCc1ccccc1)NCC(O)c1ccc(O)c(C(N)=O)c1 (stereo unspecified) [LABETALOL]	323

system: not listed separately; experiment: DRUGMATRIX: ATPase, Na+/K+ enzyme inhibition (substrate: ATP); assay type: tissue-based, Sus scrofa, Heart; settings: Not Active = under 50% inhibition at 10 µM

SMILES	IC50	Ki
CC(C)(C)NCC(O)c1ccc(O)c(CO)c1 (stereo unspecified) [ALBUTEROL]	Not Active	Not Active
CC(C)(C)NCC(O)c1cc(O)cc(O)c1 (stereo unspecified) [TERBUTALINE]	Not Active	Not Active
CC(CCc1ccccc1)NCC(O)c1ccc(O)c(C(N)=O)c1 (stereo unspecified) [LABETALOL]	Not Active	Not Active

system: not listed separately; experiment: DRUGMATRIX: Calcium Channel Type L, Benzothiazepine radioligand binding (ligand: [3H] Diltiazem); assay type: cell membranes, Rattus norvegicus, Wistar, Brain, Membrane; settings: Not Active = under 50% inhibition at 10 µM

SMILES	IC50	Ki
CC(C)(C)NCC(O)c1ccc(O)c(CO)c1 (stereo unspecified) [ALBUTEROL]	Not Active	Not Active
CC(C)(C)NCC(O)c1cc(O)cc(O)c1 (stereo unspecified) [TERBUTALINE]	Not Active	Not Active
CC(CCc1ccccc1)NCC(O)c1ccc(O)c(C(N)=O)c1 (stereo unspecified) [LABETALOL]	Not Active	Not Active

biological target: T2, 5-hydroxytryptamine receptor 2C (Homo sapiens, UniProt P28335); experiment: DRUGMATRIX: Serotonin (5-Hydroxytryptamine) 5-HT2C radioligand binding (ligand: [3H] Mesulergine); assay type: cell membranes, CHO-K1, Membrane; settings: cho-k1; Not Active = under 50% inhibition at 10 µM
T2 sequence (P28335 whole entry): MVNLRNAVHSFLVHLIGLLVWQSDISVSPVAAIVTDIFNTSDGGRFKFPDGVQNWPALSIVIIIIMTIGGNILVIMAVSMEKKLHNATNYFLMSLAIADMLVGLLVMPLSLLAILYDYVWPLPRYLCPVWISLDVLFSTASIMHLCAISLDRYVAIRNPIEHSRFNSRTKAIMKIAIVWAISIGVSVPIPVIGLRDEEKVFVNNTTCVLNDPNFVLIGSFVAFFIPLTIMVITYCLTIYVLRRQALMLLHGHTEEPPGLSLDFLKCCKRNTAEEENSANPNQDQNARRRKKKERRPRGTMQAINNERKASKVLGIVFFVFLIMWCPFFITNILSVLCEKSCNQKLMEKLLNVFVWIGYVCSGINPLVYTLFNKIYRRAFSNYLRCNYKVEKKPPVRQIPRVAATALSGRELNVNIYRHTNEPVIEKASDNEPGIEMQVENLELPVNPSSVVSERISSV

SMILES	IC50
CC(C)(C)NCC(O)c1ccc(O)c(CO)c1 (stereo unspecified) [ALBUTEROL]	Not Active
CC(C)(C)NCC(O)c1cc(O)cc(O)c1 (stereo unspecified) [TERBUTALINE]	Not Active
CC(CCc1ccccc1)NCC(O)c1ccc(O)c(C(N)=O)c1 (stereo unspecified) [LABETALOL]	Not Active

system: not listed separately; experiment: DRUGMATRIX: Serotonin (5-Hydroxytryptamine) 5-HT3 radioligand binding (ligand: [3H] GR-65630); assay type: cell membranes, Membrane; settings: hek293; Not Active = under 50% inhibition at 10 µM

SMILES	IC50	Ki
CC(C)(C)NCC(O)c1ccc(O)c(CO)c1 (stereo unspecified) [ALBUTEROL]	Not Active	Not Active
CC(C)(C)NCC(O)c1cc(O)cc(O)c1 (stereo unspecified) [TERBUTALINE]	Not Active	Not Active
CC(CCc1ccccc1)NCC(O)c1ccc(O)c(C(N)=O)c1 (stereo unspecified) [LABETALOL]	Not Active	Not Active

biological target: 5-hydroxytryptamine receptor 6 (Homo sapiens, UniProt P50406); assay type: cell membranes, HeLa, Membrane; settings: hela; also: in other assays of this panel Not Active means under 50% inhibition at 10 µM
Sequence (P50406 whole entry): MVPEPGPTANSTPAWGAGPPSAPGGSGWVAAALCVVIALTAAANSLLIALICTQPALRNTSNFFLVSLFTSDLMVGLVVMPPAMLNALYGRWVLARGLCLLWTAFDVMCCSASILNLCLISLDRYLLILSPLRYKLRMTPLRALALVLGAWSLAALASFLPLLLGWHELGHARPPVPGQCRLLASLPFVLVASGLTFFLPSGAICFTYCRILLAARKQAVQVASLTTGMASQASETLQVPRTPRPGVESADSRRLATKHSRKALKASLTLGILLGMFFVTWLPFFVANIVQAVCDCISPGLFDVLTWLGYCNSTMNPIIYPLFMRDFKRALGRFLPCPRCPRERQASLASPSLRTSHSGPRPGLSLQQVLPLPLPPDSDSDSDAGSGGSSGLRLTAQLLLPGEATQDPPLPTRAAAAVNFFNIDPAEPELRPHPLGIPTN

SMILES	IC50
CC(C)(C)NCC(O)c1ccc(O)c(CO)c1 (stereo unspecified) [ALBUTEROL]	Not Active
CC(C)(C)NCC(O)c1cc(O)cc(O)c1 (stereo unspecified) [TERBUTALINE]	Not Active
CC(CCc1ccccc1)NCC(O)c1ccc(O)c(C(N)=O)c1 (stereo unspecified) [LABETALOL]	Not Active

biological target: Sigma non-opioid intracellular receptor 1 (Homo sapiens, UniProt Q99720); experiment: DRUGMATRIX: Sigma1 radioligand binding (ligand: [3H] Haloperidol); assay type: cell membranes, Jurkat, Membrane; settings: Not Active = under 50% inhibition at 10 µM; read-out: IC50
Sequence (Q99720 whole entry): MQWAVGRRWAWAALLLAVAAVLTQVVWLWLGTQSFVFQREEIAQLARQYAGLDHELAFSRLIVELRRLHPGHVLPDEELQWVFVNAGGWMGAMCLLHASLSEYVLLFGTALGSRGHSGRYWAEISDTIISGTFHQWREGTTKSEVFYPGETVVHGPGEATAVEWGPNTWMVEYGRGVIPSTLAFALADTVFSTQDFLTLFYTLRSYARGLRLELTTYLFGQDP

SMILES	IC50 [nM]
CC(CCc1ccccc1)NCC(O)c1ccc(O)c(C(N)=O)c1 (stereo unspecified) [LABETALOL]	1810

same assay, conditions: Not Active = under 50% inhibition at 10 µM; read-out: Ki

SMILES	Ki [nM]
CC(CCc1ccccc1)NCC(O)c1ccc(O)c(C(N)=O)c1 (stereo unspecified) [LABETALOL]	763

same assay, conditions: jurkat; Not Active = under 50% inhibition at 10 µM

SMILES	IC50
CC(C)(C)NCC(O)c1ccc(O)c(CO)c1 (stereo unspecified) [ALBUTEROL]	Not Active
CC(C)(C)NCC(O)c1cc(O)cc(O)c1 (stereo unspecified) [TERBUTALINE]	Not Active

system: not listed separately; experiment: DRUGMATRIX: Calcium Channel Type L, Phenylalkylamine radioligand binding (ligand: [3H] (-)-Desmethoxyverapamil (D-888)); assay type: cell membranes, Rattus norvegicus, Wistar, Brain, Membrane; settings: Not Active = under 50% inhibition at 10 µM

SMILES	IC50	Ki
CC(C)(C)NCC(O)c1ccc(O)c(CO)c1 (stereo unspecified) [ALBUTEROL]	Not Active	Not Active
CC(C)(C)NCC(O)c1cc(O)cc(O)c1 (stereo unspecified) [TERBUTALINE]	Not Active	Not Active
CC(CCc1ccccc1)NCC(O)c1ccc(O)c(C(N)=O)c1 (stereo unspecified) [LABETALOL]	Not Active	Not Active

biological target: T3, Endothelin-1 receptor (Homo sapiens, UniProt P25101); assay type: cell membranes, Membrane; settings: cho-k1; also: in other assays of this panel Not Active means under 50% inhibition at 10 µM
T3 sequence (P25101 whole entry): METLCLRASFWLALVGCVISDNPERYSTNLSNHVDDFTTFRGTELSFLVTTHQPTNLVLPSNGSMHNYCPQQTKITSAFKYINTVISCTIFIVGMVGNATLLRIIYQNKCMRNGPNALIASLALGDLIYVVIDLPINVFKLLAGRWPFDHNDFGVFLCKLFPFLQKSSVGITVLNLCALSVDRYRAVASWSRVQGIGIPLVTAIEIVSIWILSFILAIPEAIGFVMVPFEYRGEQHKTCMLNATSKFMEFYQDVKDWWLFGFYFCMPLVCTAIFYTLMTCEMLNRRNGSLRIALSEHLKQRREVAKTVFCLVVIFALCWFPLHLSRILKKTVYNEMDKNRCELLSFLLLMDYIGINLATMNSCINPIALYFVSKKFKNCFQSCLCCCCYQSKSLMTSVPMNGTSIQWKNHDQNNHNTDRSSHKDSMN

SMILES	IC50
CC(C)(C)NCC(O)c1ccc(O)c(CO)c1 (stereo unspecified) [ALBUTEROL]	Not Active
CC(C)(C)NCC(O)c1cc(O)cc(O)c1 (stereo unspecified) [TERBUTALINE]	Not Active
CC(CCc1ccccc1)NCC(O)c1ccc(O)c(C(N)=O)c1 (stereo unspecified) [LABETALOL]	Not Active

system: not listed separately; experiment: DRUGMATRIX: GABAA, Muscimol, Central radioligand binding (ligand: [3H] Muscimol); assay type: cell membranes, Rattus norvegicus, Wistar, Brain, Membrane; settings: Not Active = under 50% inhibition at 10 µM

SMILES	IC50	Ki
CC(C)(C)NCC(O)c1ccc(O)c(CO)c1 (stereo unspecified) [ALBUTEROL]	Not Active	Not Active
CC(C)(C)NCC(O)c1cc(O)cc(O)c1 (stereo unspecified) [TERBUTALINE]	Not Active	Not Active
CC(CCc1ccccc1)NCC(O)c1ccc(O)c(C(N)=O)c1 (stereo unspecified) [LABETALOL]	Not Active	Not Active

system: not listed separately; experiment: DRUGMATRIX: Glutamate, Kainate radioligand binding (ligand: [3H] Kainic acid); assay type: cell membranes, Rattus norvegicus, Wistar, Brain, Membrane; settings: Not Active = under 50% inhibition at 10 µM

SMILES	IC50	Ki
CC(C)(C)NCC(O)c1ccc(O)c(CO)c1 (stereo unspecified) [ALBUTEROL]	Not Active	Not Active
CC(C)(C)NCC(O)c1cc(O)cc(O)c1 (stereo unspecified) [TERBUTALINE]	Not Active	Not Active
CC(CCc1ccccc1)NCC(O)c1ccc(O)c(C(N)=O)c1 (stereo unspecified) [LABETALOL]	Not Active	Not Active

biological target: Melanocortin receptor 4 (Homo sapiens, UniProt P32245); assay type: cell membranes, Membrane; settings: hek293; also: in other assays of this panel Not Active means under 50% inhibition at 10 µM
Sequence (P32245 whole entry): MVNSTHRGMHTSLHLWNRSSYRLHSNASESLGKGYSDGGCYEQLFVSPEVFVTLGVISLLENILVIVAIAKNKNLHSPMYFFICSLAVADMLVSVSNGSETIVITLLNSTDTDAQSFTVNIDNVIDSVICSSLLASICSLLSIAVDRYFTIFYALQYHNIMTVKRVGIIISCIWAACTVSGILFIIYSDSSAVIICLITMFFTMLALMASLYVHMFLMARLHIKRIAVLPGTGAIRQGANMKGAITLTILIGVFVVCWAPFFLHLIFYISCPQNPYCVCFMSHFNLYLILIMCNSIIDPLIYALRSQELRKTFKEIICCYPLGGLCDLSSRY

SMILES	IC50
CC(C)(C)NCC(O)c1ccc(O)c(CO)c1 (stereo unspecified) [ALBUTEROL]	Not Active
CC(C)(C)NCC(O)c1cc(O)cc(O)c1 (stereo unspecified) [TERBUTALINE]	Not Active
CC(CCc1ccccc1)NCC(O)c1ccc(O)c(C(N)=O)c1 (stereo unspecified) [LABETALOL]	Not Active

biological target: T4, Neuropeptide Y receptor type 2 (Homo sapiens, UniProt P49146); assay type: cell membranes, Membrane; settings: kan-ts; also: in other assays of this panel Not Active means under 50% inhibition at 10 µM
T4 sequence (P49146 whole entry): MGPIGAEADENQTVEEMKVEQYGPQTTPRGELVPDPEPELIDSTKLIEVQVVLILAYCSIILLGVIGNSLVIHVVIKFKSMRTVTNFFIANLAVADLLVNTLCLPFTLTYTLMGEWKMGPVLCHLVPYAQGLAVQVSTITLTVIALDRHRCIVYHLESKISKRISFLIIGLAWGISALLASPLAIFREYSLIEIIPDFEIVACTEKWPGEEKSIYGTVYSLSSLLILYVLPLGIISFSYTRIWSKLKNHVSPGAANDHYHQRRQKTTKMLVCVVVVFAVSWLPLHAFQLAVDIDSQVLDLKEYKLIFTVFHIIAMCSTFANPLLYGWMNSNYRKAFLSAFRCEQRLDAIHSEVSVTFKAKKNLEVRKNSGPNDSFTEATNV

SMILES	IC50
CC(C)(C)NCC(O)c1ccc(O)c(CO)c1 (stereo unspecified) [ALBUTEROL]	Not Active
CC(C)(C)NCC(O)c1cc(O)cc(O)c1 (stereo unspecified) [TERBUTALINE]	Not Active
CC(CCc1ccccc1)NCC(O)c1ccc(O)c(C(N)=O)c1 (stereo unspecified) [LABETALOL]	Not Active

system: not listed separately; experiment: DRUGMATRIX: Nicotinic Acetylcholine radioligand binding (ligand: [125I] Epibatidine); assay type: cell membranes, Membrane; settings: imr-32; Not Active = under 50% inhibition at 10 µM

SMILES	IC50	Ki
CC(C)(C)NCC(O)c1ccc(O)c(CO)c1 (stereo unspecified) [ALBUTEROL]	Not Active	Not Active
CC(C)(C)NCC(O)c1cc(O)cc(O)c1 (stereo unspecified) [TERBUTALINE]	Not Active	Not Active
CC(CCc1ccccc1)NCC(O)c1ccc(O)c(C(N)=O)c1 (stereo unspecified) [LABETALOL]	Not Active	Not Active

biological target: Kappa-type opioid receptor (Homo sapiens, UniProt P41145); experiment: DRUGMATRIX: Opiate kappa (OP2, KOP) radioligand binding (ligand: [3H] Diprenorphine); assay type: cell membranes, HEK293, Membrane; settings: hek293; Not Active = under 50% inhibition at 10 µM
Sequence (P41145 whole entry): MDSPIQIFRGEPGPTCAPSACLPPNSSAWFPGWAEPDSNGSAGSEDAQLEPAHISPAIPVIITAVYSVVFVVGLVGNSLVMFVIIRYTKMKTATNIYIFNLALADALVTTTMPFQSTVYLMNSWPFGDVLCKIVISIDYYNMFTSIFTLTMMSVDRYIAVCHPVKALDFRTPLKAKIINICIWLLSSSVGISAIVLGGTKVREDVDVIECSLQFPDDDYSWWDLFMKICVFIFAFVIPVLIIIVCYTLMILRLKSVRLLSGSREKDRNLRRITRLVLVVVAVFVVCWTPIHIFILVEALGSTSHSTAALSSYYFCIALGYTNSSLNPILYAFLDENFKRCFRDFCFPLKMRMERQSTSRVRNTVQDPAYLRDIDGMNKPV

SMILES	IC50
CC(C)(C)NCC(O)c1ccc(O)c(CO)c1 (stereo unspecified) [ALBUTEROL]	Not Active
CC(C)(C)NCC(O)c1cc(O)cc(O)c1 (stereo unspecified) [TERBUTALINE]	Not Active
CC(CCc1ccccc1)NCC(O)c1ccc(O)c(C(N)=O)c1 (stereo unspecified) [LABETALOL]	Not Active

biological target: Mu-type opioid receptor (Homo sapiens, UniProt P35372); experiment: DRUGMATRIX: Opiate mu (OP3, MOP) radioligand binding (ligand: [3H] Diprenorphine); assay type: cell membranes, CHO-K1, Membrane; settings: cho-k1; Not Active = under 50% inhibition at 10 µM
Sequence (P35372 whole entry): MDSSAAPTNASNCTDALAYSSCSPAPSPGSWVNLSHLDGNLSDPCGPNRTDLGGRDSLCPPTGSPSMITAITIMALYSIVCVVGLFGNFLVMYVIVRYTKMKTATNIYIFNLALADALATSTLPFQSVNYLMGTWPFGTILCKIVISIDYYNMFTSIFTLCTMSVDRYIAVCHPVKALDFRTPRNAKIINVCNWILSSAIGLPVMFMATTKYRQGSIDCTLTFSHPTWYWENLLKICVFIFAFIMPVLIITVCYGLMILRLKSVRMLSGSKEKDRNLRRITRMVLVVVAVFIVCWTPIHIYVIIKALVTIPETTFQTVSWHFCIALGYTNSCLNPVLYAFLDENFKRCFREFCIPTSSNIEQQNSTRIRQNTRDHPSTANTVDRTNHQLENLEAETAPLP

SMILES	IC50
CC(C)(C)NCC(O)c1ccc(O)c(CO)c1 (stereo unspecified) [ALBUTEROL]	Not Active
CC(C)(C)NCC(O)c1cc(O)cc(O)c1 (stereo unspecified) [TERBUTALINE]	Not Active
CC(CCc1ccccc1)NCC(O)c1ccc(O)c(C(N)=O)c1 (stereo unspecified) [LABETALOL]	Not Active
